A short description of series [1]: Methylene blue (MB) dye oxidation / color removal test. The settings on record: hydrogen peroxide alone, after several days.
The conditions of series [2]: cited from earlier work.

SMILES strings stand for the structures.

With `OO` [hydrogen peroxide], the “effect on methylene blue” value in series [1] was “no visible effect”. The pKa in series [2] was 11.6.

In the case of `CC(=O)OO` [peroxyacetic acid], the pKa in series [2] was 8.3.

As to `[O]O` [superoxide], in series [2], the pKa was 4.8.

These data come from US10875799B2, “System and method for generation of point of use reactive oxygen species” (Clean Chemistry, Inc., priority 2012, dated 2020).
